Earlier results, collected in US9334250B2, “Multifunctional radical quenchers for the treatment of mitochondrial dysfunction” (Arizona Board of Regents, A Body Corporate of the State of …, priority 2012, dated 2016).

Conditions: James et al. (2005) J Biol. Chem. 280, 21295-21312

COC1=C(OC)C(=O)C(C/C=C(\C)CC/C=C(\C)CC/C=C(\C)CC/C=C(\C)CC/C=C(\C)CC/C=C(\C)CC/C=C(\C)CC/C=C(\C)CC/C=C(\C)CCC=C(C)C)=C(C)C1=O [coenzyme Q10]
calculated octanol-water partition coefficient: > 1e+20
